Data on 30 molecules can be found in patent publication US12673944B2, “Compounds having inhibitory activity against glucosylceramide synthase or pharmaceutically acceptable salt thereof, processes for preparing the same, and pharmaceutical compositions comprising the same” (YUHAN CORPORATION, priority 2019, dated 2026).

The target of experiment [1] is T1, glucosylceramide synthase (GCS) (Homo sapiens, UniProt Q16739).
T1 construct: The obtained supernatant was used; host or cells: A549 cells (lysate supernatant after sonication)
T1 sequence (Q16739 1-394): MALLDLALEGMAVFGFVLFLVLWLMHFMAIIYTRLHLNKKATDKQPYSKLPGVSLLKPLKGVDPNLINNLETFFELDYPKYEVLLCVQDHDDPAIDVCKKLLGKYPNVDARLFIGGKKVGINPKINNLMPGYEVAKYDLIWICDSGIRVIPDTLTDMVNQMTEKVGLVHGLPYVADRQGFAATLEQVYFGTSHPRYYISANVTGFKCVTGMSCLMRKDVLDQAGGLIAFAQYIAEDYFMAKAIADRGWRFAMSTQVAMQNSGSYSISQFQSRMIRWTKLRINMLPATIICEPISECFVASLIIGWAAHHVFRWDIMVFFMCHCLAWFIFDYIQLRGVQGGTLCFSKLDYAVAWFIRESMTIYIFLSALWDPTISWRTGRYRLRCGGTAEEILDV
The experiment can be described thus: GCS enzyme inhibition assay (A549 cell lysate, NBD C6-ceramide, HPLC fluorescence). The class given is biochemical. The note with it: inhibitory activity against GCS, 37° C., 90 minutes. A digest of the protocol:
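A549 cell lysate (50 mM HEPES pH 7.3) served as GCS source; reactions ran 90 min at 37° C, were stopped with chloroform/methanol and lipids extracted. Activity taken as GlcCer/(Cer+GlcCer) peak area, normalised between DMSO and ibiglustat controls.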

Experiment [2] deals with GM1 production in Jurkat cells. Kind of experiment: cells. The class given is cell-based. The note with it: Homo sapiens, Jurkat, 72 h.

A word on the IC50: it is the point on the concentration scale where inhibition reaches its midpoint. Higher therefore signals lower potency.

On to `CC1(C)COc2cc(-c3ccc(=O)n(Cc4ccccc4)c3)ccc2C1NC(=O)O[C@@H]1CN2CCC1CC2` (stereo partly drawn) [Example 292, (S)-quinuclidin-3-yl (7-(1-benzyl-6-oxo-1,6-dihydropyridin-3-yl)-3,3-dimethylchroman-4-yl)carbamate], for which the IC50 in experiment [1] came out at 1.38 nM; in experiment [2] it was 30.2 nM.
In the same order, the values of `CC1(C)COc2cc(/C=C/c3ccc(F)cc3)ccc2C1NC(=O)O[C@@H]1CN2CCC1CC2` (stereo partly drawn) [Example 293, (S)-quinuclidin-3-yl (7-((E)-4-fluorostyryl)-3,3-dimethylchroman-4-yl)carbamate] are 1.23 nM and 3 nM.
`CC1(C)CC(NC(=O)O[C@@H]2CN3CCC2CC3)c2ccc(-c3cccc(C(F)(F)F)c3)cc2O1` (stereo partly drawn) [Example 295, (S)-quinuclidin-3-yl (2,2-dimethyl-7-(3-(trifluoromethyl)phenyl)chroman-4-yl)carbamate]: the 50% inhibitory concentration (IC50) in experiment [1] was 18.1 nM; in experiment [2] it was 11.2 nM.
`CC1(C)CC(NC(=O)O[C@@H]2CN3CCC2CC3)c2ccc(-c3cccc(OC(F)(F)F)c3)cc2O1` (stereo partly drawn) [Example 296, (S)-quinuclidin-3-yl (2,2-dimethyl-7-(3-(trifluoromethoxy)phenyl)chroman-4-yl)carbamate]: the results for the IC50 in experiment [1] and in experiment [2] were 11.4 nM and 1.26 nM, respectively.
In the case of `CC1(NC(=O)O[C@@H]2CN3CCC2CC3)CCOc2cc(-c3cccc(Cl)c3)ccc21` (stereo partly drawn) [Example 297, (S)-quinuclidin-3-yl (7-(3-chlorophenyl)-4-methylchroman-4-yl)carbamate], the IC50 in experiment [1] is 0.8 nM; in experiment [2], 5.6 nM.
As to `CC1(NC(=O)O[C@@H]2CN3CCC2CC3)CCOc2cc(-c3cccc(F)c3)ccc21` (stereo partly drawn) [Example 298, (S)-quinuclidin-3-yl (7-(3-fluorophenyl)-4-methylchroman-4-yl)carbamate], the figures for the IC50 in experiment [1] and in experiment [2] were 0.7 nM and 5.5 nM, respectively.
With `COc1cccc(-c2ccc3c(c2)OCCC3(C)NC(=O)O[C@@H]2CN3CCC2CC3)c1` (stereo partly drawn) [Example 299, (S)-quinuclidin-3-yl (7-(3-methoxyphenyl)-4-methylchroman-4-yl)carbamate], the figures for the IC50 in experiment [1] and in experiment [2] were 0.6 nM and 9.7 nM, respectively.
For `CC(C)c1cccc(-c2ccc3c(c2)OCCC3(C)NC(=O)O[C@@H]2CN3CCC2CC3)c1` (stereo partly drawn) [Example 300, (S)-quinuclidin-3-yl (7-(3-isopropylphenyl)-4-methylchroman-4-yl)carbamate], the IC50 was 0.23 nM in experiment [1] and 0.9 nM in experiment [2].
In the case of `COc1ccc(Cl)c(-c2ccc3c(c2)OCCC3(C)NC(=O)O[C@@H]2CN3CCC2CC3)c1` (stereo partly drawn) [Example 301, (S)-quinuclidin-3-yl (7-(2-chloro-5-methoxyphenyl)-4-methylchroman-4-yl)carbamate], the results for the concentration for half-maximal inhibition (IC50) in experiment [1] and in experiment [2] were 0.8 nM and 17.5 nM, respectively.
As to `CCOc1ccc(-c2ccc3c(c2)OCCC3(C)NC(=O)O[C@@H]2CN3CCC2CC3)cc1` (stereo partly drawn) [Example 302, (S)-quinuclidin-3-yl (7-(4-ethoxyphenyl)-4-methylchroman-4-yl)carbamate], the IC50 in experiment [1] was 0.8 nM; in experiment [2] it was 2.6 nM.
Turning to `CN(C)c1cccc(-c2ccc3c(c2)OCCC3(C)NC(=O)O[C@@H]2CN3CCC2CC3)c1` (stereo partly drawn) [Example 303, (S)-quinuclidin-3-yl (7-(3-(dimethylamino)phenyl)-4-methylchroman-4-yl)carbamate], the IC50 came out at 0.5 nM in experiment [1] and 3.2 nM in experiment [2].
As for `CC1(NC(=O)O[C@@H]2CN3CCC2CC3)CCOc2cc(-c3coc4ccccc34)ccc21` (stereo partly drawn) [Example 304, (S)-quinuclidin-3-yl (7-(benzofuran-3-yl)-4-methylchroman-4-yl)carbamate], the IC50 in experiment [1] was 0.38 nM; in experiment [2], 2.1 nM.
For `CC1(NC(=O)O[C@@H]2CN3CCC2CC3)CCOc2cc(-c3cccc(C(F)(F)F)c3)ccc21` (stereo partly drawn) [Example 305, (S)-quinuclidin-3-yl (4-methyl-7-(3-(trifluoromethyl)phenyl)chroman-4-yl)carbamate] the same measures were 0.7 nM and 5.4 nM.
With `CC1(NC(=O)O[C@@H]2CN3CCC2CC3)CCOc2cc(-c3cccc(OC(F)(F)F)c3)ccc21` (stereo partly drawn) [Example 306, (S)-quinuclidin-3-yl (4-methyl-7-(3-(trifluoromethoxy)phenyl)chroman-4-yl)carbamate], the IC50 in experiment [1] came out at 0.5 nM; in experiment [2], 3 nM.
As for `CC1(NC(=O)O[C@@H]2CN3CCC2CC3)CCOc2cc(-c3ccc4c(c3)OC(F)(F)O4)ccc21` (stereo partly drawn) [Example 307, (S)-quinuclidin-3-yl (7-(2,2-difluorobenzo[d][1,3]dioxol-5-yl)-4-methylchroman-4-yl)carbamate], the values for the IC50 in experiment [1] and in experiment [2] were 1.07 nM and 3.1 nM, respectively.
As for `CCOc1c(C)cc(-c2ccc3c(c2)OCCC3(C)NC(=O)O[C@@H]2CN3CCC2CC3)cc1C` (stereo partly drawn) [Example 308, (S)-quinuclidin-3-yl (7-(4-ethoxy-3,5-dimethylphenyl)-4-methylchroman-4-yl)carbamate], the IC50 in experiment [1] was 1.06 nM; in experiment [2], 4.1 nM.
For `CC1(NC(=O)O[C@@H]2CN3CCC2CC3)CCOc2cc(-c3ccccc3C#N)ccc21` (stereo partly drawn) [Example 309, (S)-quinuclidin-3-yl (7-(2-cyanophenyl)-4-methylchroman-4-yl)carbamate] the same measures were 5.77 nM and 37.2 nM.
For `CC(C)(C)c1cccc(-c2ccc3c(c2)OCCC3(C)NC(=O)O[C@@H]2CN3CCC2CC3)c1` (stereo partly drawn) [Example 310, (S)-quinuclidin-3-yl (7-(3-(tert-butyl)phenyl)-4-methylchroman-4-yl)carbamate] the same measures were 0.23 nM and 0.2 nM.
With `Cc1cscc1-c1ccc2c(c1)OCCC2(C)NC(=O)O[C@@H]1CN2CCC1CC2` (stereo partly drawn) [Example 311, (S)-quinuclidin-3-yl (4-methyl-7-(4-methylthiophen-3-yl)chroman-4-yl)carbamate], the IC50 in experiment [1] came out at 0.17 nM; in experiment [2], 0.7 nM.
Turning to `CC(C)(C)c1cccc(-c2ccc3c(c2)COCC3NC(=O)O[C@@H]2CN3CCC2CC3)c1` (stereo partly drawn) [Example 312, (S)-quinuclidin-3-yl (7-(3-(tert-butyl)phenyl)isochroman-4-yl)carbamate], the IC50 in experiment [1] was 5.62 nM; in experiment [2], 28.8 nM.
For the molecule `CC(C)c1cccc(-c2ccc3c(c2)COCC3NC(=O)O[C@@H]2CN3CCC2CC3)c1` (stereo partly drawn) [Example 313, (S)-quinuclidin-3-yl (7-(3-isopropylphenyl)isochroman-4-yl)carbamate], the IC50 came out at 3.89 nM in experiment [1] and 34.5 nM in experiment [2].
Regarding `CN1CCC(NC(=O)O[C@@H]2CN3CCC2CC3)c2ccc(-c3cccc(C(C)(C)C)c3)cc21` (stereo partly drawn) [Example 314, (S)-quinuclidin-3-yl (7-(3-(tert-butyl)phenyl)-1-methyl-1,2,3,4-tetrahydroquinolin-4-yl)carbamate], the half-inhibitory concentration (IC50) was 6.47 nM in experiment [1] and 56.3 nM in experiment [2].
In the same order, the values of `CN1CCC(NC(=O)O[C@@H]2CN3CCC2CC3)c2ccc(-c3coc4ccccc34)cc21` (stereo partly drawn) [Example 315, (S)-quinuclidin-3-yl (7-(benzofuran-3-yl)-1-methyl-1,2,3,4-tetrahydroquinolin-4-yl)carbamate] are 14.7 nM and 58.1 nM.
For `O=C(NC1CCSc2ccc(-c3ccc(Cl)cc3)cc21)O[C@@H]1CN2CCC1CC2` (stereo partly drawn) [Example 316, (S)-quinuclidin-3-yl (6-(4-chlorophenyl)thiochroman-4-yl)carbamate], the IC50 in experiment [1] worked out at 36.5 nM; in experiment [2], 251 nM.
For `O=C(NC1CCSc2cc(-c3cccc(F)c3)ccc21)O[C@@H]1CN2CCC1CC2` (stereo partly drawn) [Example 317, (S)-quinuclidin-3-yl (7-(3-fluorophenyl)thiochroman-4-yl)carbamate] the same measures were 2.94 nM and 13.8 nM.
In the same order, the values of `O=C(NC1CCSc2cc(-c3cccc(Cl)c3)ccc21)O[C@@H]1CN2CCC1CC2` (stereo partly drawn) [Example 318, (S)-quinuclidin-3-yl (7-(3-chlorophenyl)thiochroman-4-yl)carbamate] are 1.29 nM and 27.2 nM.
For the molecule `O=C(NC1CCSc2cc(-c3cccc(C(F)(F)F)c3)ccc21)O[C@@H]1CN2CCC1CC2` (stereo partly drawn) [Example 319, (S)-quinuclidin-3-yl (7-(3-(trifluoromethyl)phenyl)thiochroman-4-yl)carbamate], the IC50 is 1.07 nM in experiment [1] and 6.7 nM in experiment [2].
With `O=C(NC1CCSc2cc(-c3cccc(OC(F)(F)F)c3)ccc21)O[C@@H]1CN2CCC1CC2` (stereo partly drawn) [Example 320, (S)-quinuclidin-3-yl (7-(3-(trifluoromethoxy)phenyl)thiochroman-4-yl)carbamate], the IC50 in experiment [1] came to 1.5 nM; in experiment [2] it was 13.8 nM.
For `COCOc1cccc(-c2ccc3c(c2)SCCC3NC(=O)O[C@@H]2CN3CCC2CC3)c1` (stereo partly drawn) [Example 321, (S)-quinuclidin-3-yl (7-(3-(methoxymethoxy)phenyl)thiochroman-4-yl)carbamate], the IC50 in experiment [1] is 1 nM; in experiment [2], 3.64 nM.
In the case of `CC(C)(C)c1cccc(-c2ccc3c(c2)SCCC3NC(=O)O[C@@H]2CN3CCC2CC3)c1` (stereo partly drawn) [Example 322, (S)-quinuclidin-3-yl (7-(3-(tert-butyl)phenyl)thiochroman-4-yl)carbamate], the IC50 in experiment [1] stood at 1.78 nM; in experiment [2], 5.88 nM.
